From patent US20250235543A1, “MODIFIED PROTEINS AND PROTEIN DEGRADERS” (Cullgen (Shanghai), Inc., priority 2021, published 2025) come the findings set out here.

The test system of one assay is cyclin D1. As to the kind of experiment: Cyclin D1 percentage degradation in Calu-1 cells (immunoblotting). Conditions: 200 nM, 16 hours. The assay is classed as cell-based. The method in brief: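 Cells were rinsed once in cold PBS and lysed in cold RIPA buffer containing protease and phosphatase inhibitors, with gentle agitation at 4° C. for 30 min. Lysates were spun at 13,000 rpm for 10 min at 4° C., protein was measured by BCA, and samples were boiled in Laemmli buffer at 99° C. for 5 min before SDS-PAGE immunoblotting.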

Another assay deals with T1, CDK4 (Homo sapiens, UniProt P11802).
T1 construct: endogenous in cells; host or cells: Calu-1
T1 sequence (P11802 2-303 limits assumed): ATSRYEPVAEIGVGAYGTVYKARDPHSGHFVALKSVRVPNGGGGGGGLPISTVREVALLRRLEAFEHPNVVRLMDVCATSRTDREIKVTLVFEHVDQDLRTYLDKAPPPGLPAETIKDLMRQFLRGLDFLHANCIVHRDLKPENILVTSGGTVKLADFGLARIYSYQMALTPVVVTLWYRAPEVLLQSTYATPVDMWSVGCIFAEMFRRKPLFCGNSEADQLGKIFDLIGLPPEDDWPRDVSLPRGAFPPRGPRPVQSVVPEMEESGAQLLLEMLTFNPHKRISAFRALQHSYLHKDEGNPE
T1 sequence (P24385 whole entry partner): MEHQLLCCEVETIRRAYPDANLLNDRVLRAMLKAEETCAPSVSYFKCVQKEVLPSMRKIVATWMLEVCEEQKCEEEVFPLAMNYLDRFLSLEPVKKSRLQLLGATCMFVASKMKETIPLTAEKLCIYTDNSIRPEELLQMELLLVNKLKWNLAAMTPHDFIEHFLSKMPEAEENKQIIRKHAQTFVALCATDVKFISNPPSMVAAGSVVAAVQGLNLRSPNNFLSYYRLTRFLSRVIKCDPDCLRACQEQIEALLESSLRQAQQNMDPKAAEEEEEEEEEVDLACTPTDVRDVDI
T1 sequence (Q16531 2-1140 limits assumed, further chain): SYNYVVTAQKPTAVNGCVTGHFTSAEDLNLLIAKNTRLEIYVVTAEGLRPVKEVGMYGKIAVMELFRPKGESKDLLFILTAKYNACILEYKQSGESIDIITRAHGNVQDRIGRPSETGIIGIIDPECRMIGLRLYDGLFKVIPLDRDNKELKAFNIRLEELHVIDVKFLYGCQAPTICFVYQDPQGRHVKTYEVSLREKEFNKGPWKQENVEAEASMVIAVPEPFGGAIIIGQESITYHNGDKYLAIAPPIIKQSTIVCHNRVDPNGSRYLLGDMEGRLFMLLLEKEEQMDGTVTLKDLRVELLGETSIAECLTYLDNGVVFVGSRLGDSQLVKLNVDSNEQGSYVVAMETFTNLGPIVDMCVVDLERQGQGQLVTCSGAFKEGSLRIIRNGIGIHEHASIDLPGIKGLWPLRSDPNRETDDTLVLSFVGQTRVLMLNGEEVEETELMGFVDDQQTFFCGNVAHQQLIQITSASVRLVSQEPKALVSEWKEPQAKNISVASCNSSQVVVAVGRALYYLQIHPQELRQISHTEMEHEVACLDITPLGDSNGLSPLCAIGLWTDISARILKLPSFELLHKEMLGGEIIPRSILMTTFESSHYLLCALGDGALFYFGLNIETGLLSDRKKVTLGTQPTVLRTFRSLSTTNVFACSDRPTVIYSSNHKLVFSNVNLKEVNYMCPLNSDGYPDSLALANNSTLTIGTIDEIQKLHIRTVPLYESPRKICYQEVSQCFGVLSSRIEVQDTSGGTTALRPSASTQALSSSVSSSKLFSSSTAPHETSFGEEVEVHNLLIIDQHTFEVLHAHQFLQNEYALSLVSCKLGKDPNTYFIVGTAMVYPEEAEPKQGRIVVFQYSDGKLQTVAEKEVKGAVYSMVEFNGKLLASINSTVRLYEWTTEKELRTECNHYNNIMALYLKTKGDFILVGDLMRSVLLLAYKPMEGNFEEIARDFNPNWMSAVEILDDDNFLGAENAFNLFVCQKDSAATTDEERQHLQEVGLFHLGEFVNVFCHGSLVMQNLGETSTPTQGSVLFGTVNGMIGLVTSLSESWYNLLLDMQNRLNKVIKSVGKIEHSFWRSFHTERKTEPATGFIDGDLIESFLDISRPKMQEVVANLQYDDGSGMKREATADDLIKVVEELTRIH
As to the kind of experiment: CDK4 percentage degradation in Calu-1 cells (immunoblotting). The assay is classed as cell-based. Particulars: read-out: CDK4 Degradation (200 nM). A digest of the protocol:
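Cultured cells were rinsed once in cold PBS and lysed in cold RIPA buffer containing protease and phosphatase inhibitors, with gentle agitation at 4° C. for 30 min. Lysates were centrifuged at 13,000 rpm for 10 min at 4° C., and protein was quantified by BCA. Samples were then separated by SDS-PAGE, detected with ECL, and the CDK4 bands quantified in Image Lab.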
(In general: Immunoblotting shows a protein as a band on a membrane.)

Where two headings read alike, the source gives them in different places. Bounds are passed on as bounds.

For the compound `COc1ccc(NC(=O)c2ccccc2NC(=O)CCCCN2CCC(NC(=O)CN3CCN(c4ccc(Nc5ncc6c(C)c(C(C)=O)c(=O)n(C7CCCC7)c6n5)nc4)CC3)CC2)nn1` [CPD-346, 2-(5-(4-(2-(4-(6-((6-Acetyl-8-cyclopentyl-5-methyl-7-oxo-7,8-dihydropyrido[2,3-d]pyrimidin-2-yl)amino)pyridin-3-yl)piperazin-1-yl)acetamido)piperidin-1-yl)pentanamido)-N-(6-methoxypyridazin-3-yl)benzamide], the “CyclinD1 Degradation (200 nM)” value in the assay with cyclin D1 is “A (protein percentage degradation >=80%)”. Further, the inhibition at 0.2 µM on CDK4 (Calu-1 cells, 200 nM, 16 hours) fell in the range of 50 to 80%.
Taken in the same sequence, the figures for `COc1ccc(NC(=O)c2ccccc2NC(=O)COCCN2CCC(NC(=O)CN3CCN(c4ccc(Nc5ncc6c(C)c(C(C)=O)c(=O)n(C7CCCC7)c6n5)nc4)CC3)CC2)nn1` [CPD-347, 2-(2-(2-(4-(2-(4-(6-((6-Acetyl-8-cyclopentyl-5-methyl-7-oxo-7,8-dihydropyrido[2,3-d]pyrimidin-2-yl)amino)pyridin-3-yl)piperazin-1-yl)acetamido)piperidin-1-yl)ethoxy)acetamido)-N-(6-methoxypyridazin-3-yl)benzamide] were “D (protein percentage degradation <30%)” and < 30%.
Turning to `COc1ccc(NC(=O)c2ccccc2NC(=O)CCOCCN2CCC(NC(=O)CN3CCN(c4ccc(Nc5ncc6c(C)c(C(C)=O)c(=O)n(C7CCCC7)c6n5)nc4)CC3)CC2)nn1` [CPD-348, 2-(3-(2-(4-(2-(4-(6-((6-Acetyl-8-cyclopentyl-5-methyl-7-oxo-7,8-dihydropyrido[2,3-d]pyrimidin-2-yl)amino)pyridin-3-yl)piperazin-1-yl)acetamido)piperidin-1-yl)ethoxy)propanamido)-N-(6-methoxypyridazin-3-yl)benzamide], in the assay on cyclin D1, the “CyclinD1 Degradation (200 nM)” value was “D (protein percentage degradation <30%)”. Moreover, the inhibition at 0.2 µM at CDK4 (Calu-1 cells, 200 nM, 16 hours) is < 30%.
Taken in the same sequence, the figures for `CC(=O)c1c(C)c2cnc(Nc3ccc(N4CCN(CC(=O)NCCOCCOCCC(=O)Nc5ccccc5C(=O)Nc5ccc(OC6CC6)nn5)CC4)cn3)nc2n(C2CCCC2)c1=O` [CPD-350, 2-(3-(2-(2-(2-(4-(6-((6-Acetyl-8-cyclopentyl-5-methyl-7-oxo-7,8-dihydropyrido[2,3-d]pyrimidin-2-yl)amino)pyridin-3-yl)piperazin-1-yl)acetamido)ethoxy)ethoxy)propanamido)-N-(6-cyclopropoxypyridazin-3-yl)benzamide] were “A (protein percentage degradation >=80%)” and 50 to 80%.
Taken in the same sequence, the figures for `CC(=O)c1c(C)c2cnc(Nc3ccc(N4CCN(CC(=O)NCCOCCOCCC(=O)Nc5ccccc5C(=O)Nc5ccc(OC(C)C)nn5)CC4)cn3)nc2n(C2CCCC2)c1=O` [CPD-351, 2-(3-(2-(2-(2-(4-(6-((6-Acetyl-8-cyclopentyl-5-methyl-7-oxo-7,8-dihydropyrido[2,3-d]pyrimidin-2-yl)amino)pyridin-3-yl)piperazin-1-yl)acetamido)ethoxy)ethoxy)propanamido)-N-(6-isopropoxypyridazin-3-yl)benzamide] were “D (protein percentage degradation <30%)” and < 30%.
As to `CC(=O)c1c(C)c2cnc(Nc3ccc(N4CCN(C(=O)CCOCCOCCOCCC(=O)Nc5ccccc5C(=O)Nc5nc(C)c(C)s5)CC4)cn3)nc2n(C2CCCC2)c1=O` [CPD-357, 2-(3-(2-(2-(3-(4-(6-((6-Acetyl-8-cyclopentyl-5-methyl-7-oxo-7,8-dihydropyrido[2,3-d]pyrimidin-2-yl)amino)pyridin-3-yl)piperazin-1-yl)-3-oxopropoxy)ethoxy)ethoxy)propanamido)-N-(4,5-dimethylthiazol-2-yl)benzamide], in the assay on cyclin D1, the “CyclinD1 Degradation (200 nM)” value was “A (protein percentage degradation >=80%)”. In addition, the inhibition at 0.2 µM at CDK4 (Calu-1, 16 h) was in the range of 50 to 80%.
In the case of `CC(=O)c1c(C)c2cnc(Nc3ccc(N4CCN(CC(=O)NCCOCCOCCC(=O)Nc5cc6c(cc5C(=O)Nc5ccc(C)cn5)CCCN6)CC4)cn3)nc2n(C2CCCC2)c1=O` [CPD-358, 7-(3-(2-(2-(2-(4-(6-((6-Acetyl-8-cyclopentyl-5-methyl-7-oxo-7,8-dihydropyrido[2,3-d]pyrimidin-2-yl)amino)pyridin-3-yl)piperazin-1-yl)acetamido)ethoxy)ethoxy)propanamido)-N-(5-methylpyridin-2-yl)-1,2,3,4-tetrahydroquinoline-6-carboxamide], the “CyclinD1 Degradation (200 nM)” value in the assay on cyclin D1 is given as “A (protein percentage degradation >=80%)”. Further, the inhibition at 0.2 µM at CDK4 (Calu-1 cells, 200 nM, 16 hours) fell in the range of 50 to 80%.
As for `CC(=O)c1c(C)c2cnc(Nc3ccc(N4CCN(CC(=O)NCCOCCOCCC(=O)Nc5c(C(=O)Nc6ccc(C)cn6)ccc6[nH]ncc56)CC4)cn3)nc2n(C2CCCC2)c1=O` [CPD-359], the “CyclinD1 Degradation (200 nM)” value with cyclin D1 is “A (protein percentage degradation >=80%)”. Besides, on CDK4 (Calu-1 cells, 200 nM, 16 hours), the inhibition at 0.2 µM was in the range of 50 to 80%.
Regarding `CC(=O)c1c(C)c2cnc(Nc3ccc(N4CCN(CC(=O)NCCOCCOCCC(=O)Nc5cc6c(cc5C(=O)Nc5ccc(C)cn5)CCN6)CC4)cn3)nc2n(C2CCCC2)c1=O` [CPD-360, 6-(3-(2-(2-(2-(4-(6-((6-Acetyl-8-cyclopentyl-5-methyl-7-oxo-7,8-dihydropyrido[2,3-d]pyrimidin-2-yl)amino)pyridin-3-yl)piperazin-1-yl)acetamido)ethoxy)-ethoxy)propanamido)-N-(5-methylpyridin-2-yl)indoline-5-carboxamide], the “CyclinD1 Degradation (200 nM)” value in the assay with cyclin D1 is “A (protein percentage degradation >=80%)”. For the same compound, at CDK4 (Calu-1 cells, 200 nM, 16 hours), the inhibition at 0.2 µM was > 80%.
Taken in the same sequence, the figures for `CC(=O)c1c(C)c2cnc(Nc3ccc(N4CCN(CC(=O)NCCOCCOCCC(=O)Nc5c(C(=O)Nc6ccc(C)cn6)ccc6[nH]ccc56)CC4)cn3)nc2n(C2CCCC2)c1=O` [CPD-361, 4-(3-(2-(2-(2-(4-(6-((6-acetyl-8-cyclopentyl-5-methyl-7-oxo-7,8-dihydropyrido[2,3-d]pyrimidin-2-yl)amino)pyridin-3-yl)piperazin-1-yl)acetamido)ethoxy)ethoxy)propanamido)-N-(5-methylpyridin-2-yl)-1H-indole-5-carboxamide] were “A (protein percentage degradation >=80%)” and 50 to 80%.
`CC(=O)c1c(C)c2cnc(Nc3ccc(N4CCN(CC(=O)NCCOCCOCCC(=O)Nc5c(C(=O)Nc6ccc(C)cn6)ccc6ncccc56)CC4)cn3)nc2n(C2CCCC2)c1=O` [CPD-362, 5-(3-(2-(2-(2-(4-(6-((6-Acetyl-8-cyclopentyl-5-methyl-7-oxo-7,8-dihydropyrido[2,3-d]pyrimidin-2-yl)amino)pyridin-3-yl)piperazin-1-yl)acetamido)ethoxy)ethoxy)propanamido)-N-(5-methylpyridin-2-yl)quinoline-6-carboxamide]: in the assay with cyclin D1, the “CyclinD1 Degradation (200 nM)” value was “D (protein percentage degradation <30%)”. Further, the inhibition at 0.2 µM on CDK4 (Calu-1 cells, 200 nM, 16 hours) is < 30%.
Regarding `CC(=O)c1c(C)c2cnc(Nc3ccc(N4CCN(CC(=O)NCCCCCNc5ccccc5C(=O)Nc5nc(C)c(C)s5)CC4)cn3)nc2n(C2CCCC2)c1=O` [CPD-363, 2-((5-(2-(4-(6-((6-Acetyl-8-cyclopentyl-5-methyl-7-oxo-7,8-dihydropyrido[2,3-d]pyrimidin-2-yl)amino)pyridin-3-yl)piperazin-1-yl)acetamido)pentyl)amino)-N-(4,5-dimethylthiazol-2-yl)benzamide], in the assay on cyclin D1, the “CyclinD1 Degradation (200 nM)” value is reported as “A (protein percentage degradation >=80%)”. Also, the inhibition at 0.2 µM on CDK4 (Calu-1 cells, 200 nM, 16 hours) is 50 to 80%.
